The source of these data is ChEMBL document CHEMBL3045684, “Compatibility of traditional and novel acaricides with bumblebees (Bombus terrestris): a first laboratory assessment of toxicity and sublethal effects” (Pest Manag Sci, 2010).

Active and inactive are the calls of the source. The calls are words filed in the database; no cut-off is given here. Where only a bound is given, the exact number is not on record here.

The subject of series [1] is Bombus terrestris. Kind of series: Toxicity against worker Bombus terrestris (bumblebee) assessed as mortality at 50 mg a.i./l, po administered through sugar water measured after 4 to 6 weeks. Type of series: functional, organism-based.
Series [2] deals with Bombus terrestris. Kind of series: Toxicity against worker Bombus terrestris (bumblebee) assessed as mortality at 50 mg a.i./l, po administered through sugar water for 11 weeks measured everyday for 3 days followed by once a week for 11 weeks. The format is functional.
Series [3] relates to Bombus terrestris. Kind of series: Contact toxicity against worker Bombus terrestris (bumblebee) assessed as mortality at 50 mg a.i./l applied on the dorsal thorax for 11 weeks measured everyday for 3 days followed by once a week for 11 weeks. Type of series: functional.
Series [4] has as its system Apis mellifera. Kind of series: Toxicity against Apis mellifera (honey bee) assessed as adverse efffect at 250 mg/l. The format is functional, organism-based.
Series [5] can be described thus: n-octanol-water distribution coefficient, log KOW of the compound. The format is physicochemical. The following applies: read-out: log KOW.
Series [6] relates to Bombus terrestris. Kind of series: Toxicity against worker Bombus terrestris (bumblebee) assessed as reduction in reproduction at 50 mg a.i./l, po administered through pollen for 11 weeks measured once a week for 11 weeks. Type of series: functional. The arrangement: scale not given: the % may be the effect or the level left.
Series [7] relates to Bombus terrestris. Kind of series: Toxicity against worker Bombus terrestris (bumblebee) assessed as mortality at 50 mg a.i./l, po administered through pollen for 11 weeks measured everyday for 3 days followed by once a week for 11 weeks. Type of series: functional, organism-based.
Series [8] deals with Bombus terrestris. Kind of series: Contact toxicity against worker Bombus terrestris (bumblebee) assessed as reduction in reproduction at 50 mg a.i./l applied on the dorsal thorax for 11 weeks measured once a week for 11 weeks relative to control. The format is functional, organism-based.
In series [9] the test system is Bombus terrestris. Kind of series: Toxicity against worker Bombus terrestris (bumblebee) assessed as reduction in reproduction at 50 mg a.i./l, po administered through sugar water for 11 weeks measured once a week for 11 weeks relative to control. Type of series: functional. Set-up: scale not given: the % may be the effect or the level left.
Series [10] concerns Bombus terrestris. Kind of series: Contact toxicity against worker Bombus terrestris (bumblebee) assessed as mortality at 0.8 mg a.i./l applied on the dorsal thorax for 11 weeks measured everyday for 3 days followed by once a week for 11 weeks. Type of series: functional.
Series [11] concerns Bombus terrestris. Kind of series: Toxicity against worker Bombus terrestris (bumblebee) assessed as mortality at 0.8 mg a.i./l, po administered through sugar water for 11 weeks measured everyday for 3 days followed by once a week for 11 weeks. Type of series: functional.
Series [12] concerns Bombus terrestris. Kind of series: Toxicity against worker Bombus terrestris (bumblebee) assessed as reduction in reproduction at 0.8 mg a.i./l, po administered through pollen for 11 weeks measured once a week for 11 weeks. Type of series: functional, organism-based.
Series [13] has as its system Bombus terrestris. Kind of series: Contact toxicity against worker Bombus terrestris (bumblebee) assessed as reduction in reproduction at 0.8 mg a.i./l applied on the dorsal thorax for 11 weeks measured once a week for 11 weeks relative to control. The format is functional, organism-based.
Series [14] concerns Bombus terrestris. Kind of series: Toxicity against worker Bombus terrestris (bumblebee) assessed as reduction in reproduction at 0.8 mg a.i./l, po administered through sugar water for 11 weeks measured once a week for 11 weeks relative to control. Type of series: functional, organism-based.
Series [15] deals with Bombus terrestris. Kind of series: Toxicity against worker Bombus terrestris (bumblebee) assessed as mortality at 0.8 mg a.i./l, po administered through pollen for 11 weeks measured everyday for 3 days followed by once a week for 11 weeks. Type of series: functional, organism-based.
Series [16] has as its system Bombus terrestris. Kind of series: Contact toxicity against worker Bombus terrestris (bumblebee) assessed as mortality at 100 mg a.i./l applied on the dorsal thorax for 11 weeks measured everyday for 3 days followed by once a week for 11 weeks. The format is functional.
For series [17], the system named is Bombus terrestris. Kind of series: Toxicity against worker Bombus terrestris (bumblebee) assessed as mortality at 200 mg a.i./l, po administered through pollen for 11 weeks measured everyday for 3 days followed by once a week for 11 weeks. The format is functional.
Series [18] deals with Bombus terrestris. Kind of series: Toxicity against worker Bombus terrestris (bumblebee) assessed as mortality at 10 mg a.i./l, po administered through sugar water for 11 weeks measured everyday for 3 days followed by once a week for 11 weeks. The format is functional.
The subject of series [19] is Bombus terrestris. Kind of series: Contact toxicity against worker Bombus terrestris (bumblebee) assessed as mortality at 200 mg a.i./l applied on the dorsal thorax for 11 weeks measured everyday for 3 days followed by once a week for 11 weeks. Type of series: functional.
Series [20] concerns Bombus terrestris. Kind of series: Toxicity against worker Bombus terrestris (bumblebee) assessed as mortality at 10 mg a.i./l, po administered through pollen for 11 weeks measured everyday for 3 days followed by once a week for 11 weeks. Type of series: functional, organism-based.
For series [21], the system named is Bombus terrestris. Kind of series: Toxicity against worker Bombus terrestris (bumblebee) assessed as mortality at 200 mg a.i./l, po administered through sugar water for 11 weeks measured everyday for 3 days followed by once a week for 11 weeks. The format is functional.
In series [22] the test system is Bombus terrestris. Kind of series: Contact toxicity against worker Bombus terrestris (bumblebee) assessed as mortality at 10 mg a.i./l applied on the dorsal thorax for 11 weeks measured everyday for 3 days followed by once a week for 11 weeks. Type of series: functional.
For series [23], the system named is Bombus terrestris. Kind of series: Toxicity against worker Bombus terrestris (bumblebee) assessed as mortality at 100 mg a.i./l, po administered through sugar water for 11 weeks measured everyday for 3 days followed by once a week for 11 weeks. Type of series: functional.
The test system of series [24] is Bombus terrestris. Kind of series: Toxicity against worker Bombus terrestris (bumblebee) assessed as reduction in reproduction at 10 mg a.i./l, po administered through pollen for 11 weeks measured once a week for 11 weeks. Type of series: functional. Set-up: scale not given: the % may be the effect or the level left.
Series [25] deals with Bombus terrestris. Kind of series: Toxicity against worker Bombus terrestris (bumblebee) assessed as reduction in reproduction at 200 mg a.i./l, po administered through pollen for 11 weeks measured once a week for 11 weeks. The format is functional. The arrangement: scale not given: the % may be the effect or the level left.
Series [26] relates to Bombus terrestris. Kind of series: Toxicity against worker Bombus terrestris (bumblebee) assessed as reduction in reproduction at 100 mg a.i./l, po administered through pollen for 11 weeks measured once a week for 11 weeks. The format is functional. The arrangement: scale not given: the % may be the effect or the level left.
In series [27] the test system is Bombus terrestris. Kind of series: Contact toxicity against worker Bombus terrestris (bumblebee) assessed as reduction in reproduction at 100 mg a.i./l applied on the dorsal thorax for 11 weeks measured once a week for 11 weeks relative to control. Type of series: functional, organism-based.
Series [28] relates to Bombus terrestris. Kind of series: Toxicity against worker Bombus terrestris (bumblebee) assessed as reduction in reproduction at 200 mg a.i./l, po administered through sugar water for 11 weeks measured once a week for 11 weeks relative to control. The format is functional, organism-based.
Series [29] concerns Bombus terrestris. Kind of series: Toxicity against worker Bombus terrestris (bumblebee) assessed as reduction in reproduction at 10 mg a.i./l, po administered through sugar water for 11 weeks measured once a week for 11 weeks relative to control. Type of series: functional, organism-based.
Series [30] concerns Bombus terrestris. Kind of series: Toxicity against worker Bombus terrestris (bumblebee) assessed as reduction in reproduction at 100 mg a.i./l, po administered through sugar water for 11 weeks measured once a week for 11 weeks relative to control. Type of series: functional, organism-based.
In series [31] the test system is Bombus terrestris. Kind of series: Toxicity against worker Bombus terrestris (bumblebee) assessed as mortality at 100 mg a.i./l, po administered through pollen for 11 weeks measured everyday for 3 days followed by once a week for 11 weeks. The format is functional.
Series [32] concerns Bombus terrestris. Kind of series: Contact toxicity against worker Bombus terrestris (bumblebee) assessed as reduction in reproduction at 200 mg a.i./l applied on the dorsal thorax for 11 weeks measured once a week for 11 weeks relative to control. Type of series: functional, organism-based.
For series [33], the system named is Bombus terrestris. Kind of series: Contact toxicity against worker Bombus terrestris (bumblebee) assessed as reduction in reproduction at 10 mg a.i./l applied on the dorsal thorax for 11 weeks measured once a week for 11 weeks relative to control. Type of series: functional, organism-based.

What is called mortality is the share of the test organisms that died. Regarding `Cc1nn(C)c(Oc2ccccc2)c1/C=N/OCc1ccc(C(=O)OC(C)(C)C)cc1` [FENPYROXYMATE], in series [1], the result was Active. In addition, the mortality at 50 µg/mL in series [2] is 95%; in series [3], less than 25%. Moreover, the outcome in [4], in series [7] and in series [8] was inactive. Moreover, in series [5], the logP was 5.01. The figures for the Activity in series [6] and in [9] were 50% and 90%, respectively.
For the compound `Cc1cc(C)c(C2=C(OC(=O)CC(C)(C)C)C3(CCCC3)OC2=O)c(C)c1` [SPIROMESIFEN], the mortality at 0.8 µg/mL in series [10] and in series [11] was less than 25% each time. The outcome in series [12] and in series [14] was Active. Besides, the outcome in series [13] and in series [15] was inactive.
For the compound `CCc1nn(C)c(C(=O)NCc2ccc(C(C)(C)C)cc2)c1Cl` [TEBUFENPYRAD], the figures for the mortality at 100 µg/mL in [16], in series [23] and in [31] were less than 25%, 50% and 90%, respectively. The mortality at 200 µg/mL in series [17] was 90%; in [19] it was less than 25%; in [21], 50%. The mortality at 10 µg/mL in series [18] is 50%; in series [22] it was less than 25%. Besides, the result in [20], in series [27], in [32] and in [33] was inactive. The Activity in series [24], in series [25] and in series [26] was 50% in each case. In addition, the result in series [28], in series [29] and in series [30] was Active.
